# Data: patent US20110039783A1, “PEPTIDE HAVING HYPOTENSIVE ACTIVITY” (DAIICHI SANKYO COMPANY LIMITED, priority 2007, published 2011)
# Where no end group is shown, it is not given here.
# Tested on: blood pressure of anesthetized Sprague-Dawley IGS male rats
# Test: Hypotensive activity in anesthetized rats, invasive blood pressure measurement after intravenous administration
# Format: in vivo, rat
# Conditions: for Hypotensive activity (dose/rat) 10 nmol / Hypotensive activity (dose/rat) 30 nmol / Hypotensive activity (dose/rat) 100 nmol: anesthetized rats, intravenous; for Hypotensive activity (dose/rat) 10 nmol: 10 nmol/rat; for Hypotensive activity (dose/rat) 30 nmol: 30 nmol/rat; for Hypotensive activity (dose/rat) 100 nmol: 100 nmol/rat; for dose dependence of hypotensive activity: anesthetized rats, 10, 30, 100 nmol/rat
# Experimental: 50 mg/kg pentobarbital sodium was intraperitoneally administered to 8- to 10-week-old Sprague-Dawley IGS male rats (Charles River Laboratories Japan, Inc.) for anesthesia. Thereafter, a tracheal cannula (PE 250), a femoral vein cannula (PE50), and a femoral artery cannula (PESO) were inserted into each rat. The femoral artery cannula was connected with a pressure transducer (PE23XL; manufactured by Nihon Kohden Corporation), and an apparatus formed by incorporating a blood pressure measurement unit (AP-641G; manufactured by Nihon Kohden Corporation) and an instantaneous heart rate measurement unit (AT-601G; manufactured by Nihon Kohden Corporation) into a multi-purpose preamplifier (RP-6004; manufactured by Nihon Kohden Corporation) was used to record the blood pressure and heart rate of each rat. The blood pressure was calibrated using a mercury manometer included in a stand-type electromanometer (MP-25S; manufactured by Nihon Kohden Corporation). The recording paper was adjusted, such that 10 mm or 20 mm on the recording paper corresponded to 100 mmHg.
# Each peptide was dissolved in a concentration of 1 mM or 10 mM in a 0.1% acetic acid solution to prepare a peptide solution. Thereafter, depending on dose, it was diluted with a normal saline containing 0.1% bovine serum albumin (Fr.V). In the case of the dose of 10 nmol/rat, a 1 mM peptide solution was 10 times diluted, and 100 μl of the diluted solution was administered. In the case of the dose of 30 nmol/rat, a 1 mM peptide solution was 10 times diluted, and 300 μL, of the diluted solution was administered. In the case of the dose of 100 nmol/rat, a 10 mM peptide solution was 10 times diluted, and 100 μL of the diluted solution was administered. Each peptide was intravenously administered via the femoral vein cannula, and the systolic blood pressure, diastolic blood pressure, and heart rate were then measured.
# Various HC021 derivative peptides were synthesized in accordance with Example 1, and such peptide was then administered to each rat at a dose of 10 nmol/rat, 30 nmol/rat, or 100 mol/rat by the method described in Example 2. Thereafter, the hypotensive activity of each derivative peptide was measured. […] The strength of such activity was determined using a median of activity in repeated experiments. In addition, in order to make a comparison among the activities of various derivative peptides, the strength of hypotensive activity was defined as follows.
# Strength of Hypotensive Activity
# Extremely strong activity (+++): A decrease in systolic blood pressure is 30 mmHg or more, and the time required for recovery is 5 minutes or more.
# Strong activity (++): A decrease in systolic blood pressure is 20 mmHg or more and less than 30 mmHg, or the time required for recovery is less than 5 minutes.
# Activity observed (+): A decrease in systolic blood pressure is less than 20 mmHg.
# Activity not observed (−)
# Various HC021 peptide sequence-substituted products were synthesized in accordance with Example 1, and their hypotensive activity was then measured according to the method of Example 3.
Substance,Hypotensive activity (dose/rat) 10 nmol (Table 2),Hypotensive activity (dose/rat) 30 nmol (Table 2),Hypotensive activity (dose/rat) 100 nmol (Table 2),other results
LFFRRLQAYFKGRGLDLGTFPNPF [Compound 27],"+++ (Extremely strong activity (+++): A decrease in systolic blood pressure is 30 mmHg or more, and the time required for recovery is 5 minutes or more.)",,,
LFFRRLQAYFKGRGLDLGTFPNPF-amide (LFFRRLQAYFKGRGLDLGTFPNPF-NH2) [Compound 28],"+++ (Extremely strong activity (+++): A decrease in systolic blood pressure is 30 mmHg or more, and the time required for recovery is 5 minutes or more.)",,,
LFFRRLQAYFKGRGLDLGTFPNPFPTNENPR [Compound 29],"+++ (Extremely strong activity (+++): A decrease in systolic blood pressure is 30 mmHg or more, and the time required for recovery is 5 minutes or more.)",,,
LFFRRLQAYFKGRGLDLGTFPNPFPTNENPR-amide [Compound 30],"+++ (Extremely strong activity (+++): A decrease in systolic blood pressure is 30 mmHg or more, and the time required for recovery is 5 minutes or more.)",,,"Hypotensive activity (dose/rat) 10 nmol (Table 3): +++ (Extremely strong activity (+++): A decrease in systolic blood pressure is 30 mmHg or more, and the time required for recovery is 5 minutes or more.)"
LFFRSLQAYFK-amide (LFFRSLQAYFK-NH2) [Compound 43],,,,"Hypotensive activity (dose/rat) 10 nmol (Table 3): −; Hypotensive activity (dose/rat) 30 nmol (Table 3): ++ (Strong activity (++): A decrease in systolic blood pressure is 20 mmHg or more and less than 30 mmHg, or the time required for recovery is less than 5 minutes.)"
NGATVRNEDKWKPLNNPRNRDLFFRRLQAYFK-amide [Compound 6],−,+ (Activity observed (+): A decrease in systolic blood pressure is less than 20 mmHg.),,
NRDLFFRRLQAYAK-amide (NRDLFFRRLQAYAK-NH2) [Compound 42],,,,"Hypotensive activity (dose/rat) 10 nmol (Table 3): −; Hypotensive activity (dose/rat) 30 nmol (Table 3): −; Hypotensive activity (dose/rat) 100 nmol (Table 3): ++ (Strong activity (++): A decrease in systolic blood pressure is 20 mmHg or more and less than 30 mmHg, or the time required for recovery is less than 5 minutes.)"
NRDLFFRRLQAYFK (not fully specified (C-terminus)) [Compound 15],−,−,+ (Activity observed (+): A decrease in systolic blood pressure is less than 20 mmHg.),
NRDLFFRRLQAYFKG [Compound 11],−,−,+ (Activity observed (+): A decrease in systolic blood pressure is less than 20 mmHg.),
NRDLFFRRLQAYFKG-amide (NRDLFFRRLQAYFKG-NH2) [Compound 12],−,"++ (Strong activity (++): A decrease in systolic blood pressure is 20 mmHg or more and less than 30 mmHg, or the time required for recovery is less than 5 minutes.)","+++ (Extremely strong activity (+++): A decrease in systolic blood pressure is 30 mmHg or more, and the time required for recovery is 5 minutes or more.)",dose dependence of hypotensive activity: enhanced their hypotensive activity in a dose-dependent manner
NRDLFFRRLQAYFKGR [Compound 13],,−,"++ (Strong activity (++): A decrease in systolic blood pressure is 20 mmHg or more and less than 30 mmHg, or the time required for recovery is less than 5 minutes.)",
NRDLFFRRLQAYFKGR-amide (NRDLFFRRLQAYFKGR-NH2) [Compound 14],+ (Activity observed (+): A decrease in systolic blood pressure is less than 20 mmHg.),"++ (Strong activity (++): A decrease in systolic blood pressure is 20 mmHg or more and less than 30 mmHg, or the time required for recovery is less than 5 minutes.)",,dose dependence of hypotensive activity: enhanced their hypotensive activity in a dose-dependent manner
NRELFFRRLQAYFK-amide (NRELFFRRLQAYFK-NH2) [Compound 41],,,,"Hypotensive activity (dose/rat) 10 nmol (Table 3): −; Hypotensive activity (dose/rat) 30 nmol (Table 3): ++ (Strong activity (++): A decrease in systolic blood pressure is 20 mmHg or more and less than 30 mmHg, or the time required for recovery is less than 5 minutes.)"
RDLFFRRLQAYFK-amide (RDLFFRRLQAYFK-NH2) [Compound 16],−,"++ (Strong activity (++): A decrease in systolic blood pressure is 20 mmHg or more and less than 30 mmHg, or the time required for recovery is less than 5 minutes.)","+++ (Extremely strong activity (+++): A decrease in systolic blood pressure is 30 mmHg or more, and the time required for recovery is 5 minutes or more.)",dose dependence of hypotensive activity: enhanced their hypotensive activity in a dose-dependent manner
RLQAYFK-amide (RLQAYFK-NH2) [Compound 23],,−,−,
RRLQAYFK-amide (RRLQAYFK-NH2) [Compound 22],,−,−,
VQQRKESKKPPAKLQPRNRDLFFRRLQAYFK-amide (VQQRKESKKPPAKLQPRNRDLFFRRLQAYFK-NH2) [Compound 40],,,,"Hypotensive activity (dose/rat) 30 nmol (Table 3): ++ (Strong activity (++): A decrease in systolic blood pressure is 20 mmHg or more and less than 30 mmHg, or the time required for recovery is less than 5 minutes.)"
acetyl-ATVRNEDKWKPLNNPRNRDLFFRRLQAYFK-amide [Compound 31],,"+++ (Extremely strong activity (+++): A decrease in systolic blood pressure is 30 mmHg or more, and the time required for recovery is 5 minutes or more.)",,
acetyl-NRDLFFRRLQAYFK-amide (Ac-NRDLFFRRLQAYFK-NH2) [Compound 32],,"++ (Strong activity (++): A decrease in systolic blood pressure is 20 mmHg or more and less than 30 mmHg, or the time required for recovery is less than 5 minutes.)",,
"pyr-EDKWKPLNNPRNRDLFFRRLQAYFK-amide (not fully specified; N-terminal pyroglutamate, C-terminal amide) [Compound 33]","++ (Strong activity (++): A decrease in systolic blood pressure is 20 mmHg or more and less than 30 mmHg, or the time required for recovery is less than 5 minutes.)",,,
